This is an account of results in US20260297042A1, “BIARYLAMIDE DERIVATIVES AND THEIR USE AS PKMYT1 INHIBITORS” (CANCER RESEARCH TECHNOLOGY LIMITED, priority 2023, published 2026).

The structures appear in SMILES notation. Bounds are passed on as bounds.

The first assay concerns the target T1, Human PKMYT1 (Homo sapiens, UniProt Q99640).
T1 construct: Human PKMYT1 75-362 was cloned as a TEV cleavable 6xHis fusion; 6xHis (TEV cleavable) (cleaved yes); made in house; host or cells: bacterial cells
T1 sequence (Q99640 75-362): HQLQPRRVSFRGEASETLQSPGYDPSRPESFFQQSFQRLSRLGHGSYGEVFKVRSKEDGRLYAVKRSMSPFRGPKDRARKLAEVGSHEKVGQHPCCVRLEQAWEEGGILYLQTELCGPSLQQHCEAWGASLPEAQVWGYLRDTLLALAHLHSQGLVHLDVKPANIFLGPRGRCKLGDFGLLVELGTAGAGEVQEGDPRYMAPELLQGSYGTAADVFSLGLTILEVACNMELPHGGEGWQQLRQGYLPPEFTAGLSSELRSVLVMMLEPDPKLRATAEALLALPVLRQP
The assay is described as follows: PKMYT1 biochemical ADP-Glo enzymatic assay. Particulars: ADP-Glo; 15 nM PKMYT1 kinase domain, 500 µM ATP, 60 minutes at 26° C.; banded. As for the experimental part: Human PKMYT1 75-362 was cloned as a TEV cleavable 6xHis fusion in bacterial cells. After purification on a Ni++HiTrap Chelating HP column, the His-tag was cleaved using TEV protease. Cleaved PKMYT1 was further purified on a Superdex 200 16/600 sizing column. The fractions containing PKMYT1 were pooled and concentrated using an ultrafiltration centrifugal protein concentrator. The purified protein was aliquoted, flash frozen in liquid nitrogen, and stored at −80° C.
PKMYT1 biochemical assay: Inhibition of PKMYT1 was assessed using the ADP-Glo™ Max Detection System from Promega. This assay detects the production of ADP from ATP by PKMYT1 via a two-step process ultimately involving the conversion of ADP to ATP with the latter converted to light in a coupled reaction with luciferase/luciferin. Inhibition of PKMYT1 by small molecule inhibitors results in a retardation of luminescence above background. The intrinsic ATPase activity of PKMYT1 was assessed according to the following protocol. Compounds were dosed into Corning white low volume 384 well assay plates using an Echo acoustic dispenser to generate 10-point curves spanning a 3-fold dilution series. DMSO (no inhibitor) control wells were prepared to benchmark the maximum and minimum signals in the presence and absence of PKMYT1, respectively. The PKMYT1 kinase domain was purified in-house, as described above, and added to the wells at a final concentration of 15 nM in a buffer of 50 mM HEPES (pH 7.5), 10 mM MgCl2, 1 mM EGTA, 0.01% Brij-35, 1% DMSO. 500 µM ATP was added to start the reaction with the final assay volume being 4 μl. The plate was then incubated for 60 minutes at 26° C. before the addition of 4 μl of ADP-Glo Reagent to stop the reaction and deplete the unconsumed ATP. Following a further 60 minute incubation the assay signal was developed by the addition of 8 μl ADP-Glo Max Detection Reagent. After 60 minutes the luminescence signal was read on a PHERAStar FS microplate reader (BMG Labtech).
Data analysis: Data was captured and analysed within the Dotmatics Studies software module where dose response curves were generated and IC50 values determined. Acceptance and verification of data followed strict in-house business rules which are summarised as follows. […] Technical and biological replicates of each compound are routinely tested and replicate IC50 values must fall within 3-fold of each other with dose response curves showing ‘goodness of fit’ r2 values >0.9. Failure to meet any of these defined criteria result in rejection of data.
In general terms: ADP-Glo first removes unused ATP, then detects ADP through luciferase.
With `Cc1ccc(O)c(C)c1NC(=O)c1cnc(NCCCO)s1` [BAA-069, N-(3-hydroxy-2,6-dimethyl-phenyl)-2-(3-hydroxypropylamino)thiazole-5-carboxamide], the IC50 – broadly, the midpoint of a concentration-inhibition curve – fell in the range of 1000 to 11000 nM.

`Cc1ccc(O)c(C)c1NC(=O)c1cnc(NCC(N)=O)s1` [BAA-070, 2-[(2-amino-2-oxo-ethyl)amino]-N-(3-hydroxy-2,6-dimethyl-phenyl)thiazole-5-carboxamide] came in with an IC50 of 1000 to 11000 nM.

In turn, `CCN(c1ccc(F)cc1)c1ccc(Nc2ncc(C(=O)Nc3c(C)ccc(O)c3C)s2)nc1` [BAA-311, 2-((5-(ethyl(4-fluorophenyl)amino)pyridin-2-yl)amino)-N-(3-hydroxy-2,6-dimethylphenyl)thiazole-5-carboxamide] displayed an IC50 of 1000 to 11000 nM.

In turn, `Cc1ccc(O)c(C)c1NC(=O)c1cnc(Nc2ccn(CC(=O)NC[C@H](C)O)n2)s1` [BAA-174] returned an IC50 of 50 to 1000 nM.

The molecule `CCOC(=O)c1coc(Nc2ncc(C(=O)Nc3c(C)ccc(O)c3C)s2)n1` [BAA-045] had an IC50 of 50 to 1000 nM.

For `Cc1ccc(O)c(C)c1NC(=O)c1cnc(NCC2CCN(C(=O)CN3CCOCC3)CC2)s1` [BAA-217, N-(3-hydroxy-2,6-dimethyl-phenyl)-2-[[1-(2-morpholinoacetyl)-4-piperidyl]methylamino]thiazole-5-carboxamide], the IC50 was 50 to 1000 nM.

As to `Cc1cc(-c2ccc(F)cc2)cnc1Nc1ncc(C(=O)Nc2c(C)ccc(O)c2C)s1` [BAA-292, 2-((5-(4-fluorophenyl)-3-methylpyridin-2-yl)amino)-N-(3-hydroxy-2,6-dimethylphenyl)thiazole-5-carboxamide], the IC50 was in the range of 1000 to 11000 nM.

Turning to `Cc1ccc(O)c(C)c1NC(=O)c1cnc(Nc2cn[nH]c2)s1` [BAA-026, N-(3-hydroxy-2,6-dimethyl-phenyl)-2-(1H-pyrazol-4-ylamino)thiazole-5-carboxamide], the IC50 lay within 1000 to 11000 nM.

For the molecule `Cc1ccc(O)c(C)c1NC(=O)c1cnc(N[C@H]2CCN(C(=O)OC(C)(C)C)C2)s1` [BAA-049, tert-butyl (3S)-3-[5-[(3-hydroxy-2,6-dimethyl-phenyl)carbamoyl]thiazol-2-ylamino]pyrrolidine-1-carboxylate], the IC50 lay in the range of 1000 to 11000 nM.

In turn, `Cc1ccc(O)c(C)c1NC(=O)c1cnc(N[C@@H]2CCN(C(=O)OC(C)(C)C)C2)s1` [BAA-050] displayed an IC50 of 1000 to 11000 nM.

In turn, `Cc1ccc(O)c(C)c1NC(=O)c1cnc(NC2CCCCC2)s1` [BAA-064, 2-(cyclohexylamino)-N-(3-hydroxy-2,6-dimethyl-phenyl)thiazole-5-carboxamide] returned an IC50 of 1000 to 11000 nM.

In turn, `CCN(c1ccc(F)cc1)c1cccc(Nc2ncc(C(=O)Nc3c(C)ccc(O)c3C)s2)n1` [BAA-312, 2-((6-(ethyl(4-fluorophenyl)amino)pyridin-2-yl)amino)-N-(3-hydroxy-2,6-dimethylphenyl)thiazole-5-carboxamide] returned a concentration for half-maximal inhibition (IC50) of 1000 to 11000 nM.

Regarding `Cc1ccc(O)c(C)c1NC(=O)c1cnc(Nc2ccn([C@H]3CCCN(C(=O)OC(C)(C)C)C3)n2)s1` [BAA-039], the IC50 was in the range of 1000 to 11000 nM.

Regarding `Cc1ccc(O)c(C)c1NC(=O)c1cnc(NCCC(C)(C)C)s1` [BAA-074, 2-(3,3-dimethylbutylamino)-N-(3-hydroxy-2,6-dimethyl-phenyl)thiazole-5-carboxamide], the IC50 was 1000 to 11000 nM.

Molecule `Cc1ccc(O)c(C)c1NC(=O)c1cnc(Nc2ccc(-c3ccc(F)cc3)cn2)s1` [BAA-291, 2-((5-(4-fluorophenyl)pyridin-2-yl)amino)-N-(3-hydroxy-2,6-dimethylphenyl)thiazole-5-carboxamide] gave an IC50 of 1000 to 11000 nM.

`Cc1ccc(O)c(C)c1NC(=O)c1cnc(Nc2ccn(CCNC(=O)OC(C)(C)C)n2)s1` [BAA-020, tert-butyl N-[2-[3-[5-[(3-hydroxy-2,6-dimethyl-phenyl)carbamoyl]thiazol-2-yl]amino]pyrazol-1-ylethyl]carbamate] had an IC50 of 1000 to 11000 nM.

As for `Cc1ccc(O)c(C)c1NC(=O)c1cnc(NCC2CCN(CC(=O)N(C)C)CC2)s1` [BAA-216, 2-[[1-[2-(dimethylamino)-2-oxo-ethyl]-4-piperidyl]methylamino]-N-(3-hydroxy-2,6-dimethyl-phenyl)thiazole-5-carboxamide], the IC50 was 1000 to 11000 nM.

`Cc1ccc(O)c(C)c1NC(=O)c1cnc(Nc2cc(CN3CCN(CCO)CC3)n(C)n2)s1` [BAA-052, N-(3-Hydroxy-2.6-dimethyl-phenyl)-2-[[5-[[4-(2-hydroxyethyl)piperazin-4-ium-1-yl]methyl]-1-methyl-pyrazol-3-yl]amino]thiazole-5-carboxamide] came in with an IC50 of 1000 to 11000 nM.

The molecule `Cc1ccc(O)c(C)c1NC(=O)c1cnc(NCCc2ccc(C(F)(F)F)cc2)s1` [BAA-075, N-(3-hydroxy-2,6-dimethyl-phenyl)-2-[2-[4-(trifluoromethyl)phenyl]ethylamino]thiazole-5-carboxamide] showed an IC50 of 1000 to 11000 nM.

In turn, `Cc1ccc(O)c(C)c1NC(=O)c1cnc(Nc2ccn([C@H]3CCOC3)n2)s1` [BAA-041] returned an IC50 of 50 to 1000 nM.

`Cc1ccc(O)c(C)c1NC(=O)c1cnc(NCC2CCN(C(=O)CN3CCCC3)CC2)s1` [BAA-211, N-(3-Hydroxy-2.6-dimethyl-phenyl)-2-[[1-(2-pyrrolidin-1-ylacetyl)-4-piperidyl]methylamino]thiazole-5-carboxamide] showed an IC50 of 1000 to 11000 nM.

The assay is the same for the next values; noted with them: PKMYT1 biochemical ADP-Glo enzymatic assay; Comparison Data 1.
`Cc1c(O)cccc1NC(=O)c1cnc(N)s1` [REF-002, 2-Amino-N-(3-hydroxy-2-methyl-phenyl)thiazole-5-carboxamide, reference compound] had an IC50 of 26800 nM. That is a double-digit micromolar value.

In turn, `Cc1ccc(O)cc1NC(=O)c1cnc(N)s1` [REF-001, 2-Amino-N-(5-hydroxy-2-methyl-phenyl)thiazole-5-carboxamide, reference compound] registered an IC50 of 53200 nM.

Staying with this assay, now noted: PKMYT1 biochemical ADP-Glo enzymatic assay; Comparison Data 2.
`Cc1cccc(C)c1NC(=O)c1cnc(Nc2ccn(C)n2)s1` [REF-003, N-(2,6-Dimethylphenyl)-2-[(1-methylpyrazol-3-yl)amino]thiazole-5-carboxamide, reference compound] registered an IC50 of 54300 nM.

The molecule `COc1ccc(C)c(NC(=O)c2cnc(Nc3ccn(C)n3)s2)c1C` [REF-004, N-(3-Methoxy-2,6-dimethyl-phenyl)-2-[(1-methylpyrazol-3-yl)amino]thiazole-5-carboxamide, reference compound] yielded an IC50 of over 100000 nM.

Staying with this assay, now noted: PKMYT1 kinase domain 15 nM; ADP-Glo; banded values.
As for `CCN(CC)C(=O)Cn1nc(C(F)(F)F)cc1Nc1ncc(C(=O)Nc2c(C)ccc(O)c2C)s1` [BAA-561, 2-((1-(2-(diethylamino)-2-oxoethyl)-3-(trifluoromethyl)-1H-pyrazol-5-yl)amino)-N-(3-hydroxy-2,6-dimethylphenyl)thiazole-5-carboxamide], the IC50 lay in the range of 1000 to 11000 nM.

As for `Cc1cc(Cl)c(O)c(C)c1NC(=O)c1cnc(Nc2ccn(C)n2)s1` [BAA-547, N-(4-chloro-3-hydroxy-2,6-dimethylphenyl)-2-((1-methyl-1H-pyrazol-3-yl)amino)thiazole-5-carboxamide], the IC50 lay in the range of 1000 to 11000 nM.

As to `Cc1ccc(N2CCN(C3CC3)CC2)nc1Nc1ncc(C(=O)Nc2c(C)ccc(O)c2C)s1` [BAA-433, 2-((6-(4-cyclopropylpiperazin-1-yl)-3-methylpyridin-2-yl)amino)-N-(3-hydroxy-2,6-dimethylphenyl)thiazole-5-carboxamide], the 50% inhibitory concentration (IC50) is under 50 nM.

In the case of `Cc1ccc(O)c(C)c1NC(=O)c1cnc(Nc2ccccc2C(C)C)s1` [BAA-525, N-(3-hydroxy-2,6-dimethylphenyl)-2-((2-isopropylphenyl)amino)thiazole-5-carboxamide], the IC50 fell in the range of 1000 to 11000 nM.

In the case of `Cc1cc(C)c(NC(=O)c2cnc(Nc3ccn(C)n3)s2)c(C)c1O` [BAA-517, N-(3-Hydroxy-2,4,6-trimethylphenyl)-2-((1-methyl-1H-pyrazol-3-yl)amino)thiazole-5-carboxamide], the IC50 is 1000 to 11000 nM.
